US7851436B2, “Inhibition of migration and induction of cell death by the type II collagen amino propeptides” (Washington University, priority 2007, dated 2010)

How the values were obtained:
[1] = test system: Ch-1 cell adhesion to PIIBNP; test: Inhibition of Ch-1 cell adhesion to PIIBNP by synthetic blocking peptides and integrin antibodies; assay type: cell-based, human
Method: (§1) Cell Adhesion Assay. Cell adhesion assays were performed using a spectrometric method. A 96-well plate was coated at 4° C. overnight with recombinant proteins. Wells were washed three times with RPMI-1640 medium containing 10% FBS. Ch-1 cells were harvested with limited trypsin digestion and plated at 5×10^4 cells per well in RPMI-1640 medium supplemented with 10% FBS for an hours. Proteins were added and incubation continued for 1 hour. The wells were washed three times with pre-warmed PBS to remove non-adherent cells. The adherent cells were fixed with 4% paraformaldehyde in PBS for 10 minutes at room temperature and stained with 0.5% toluidine blue for 5 minutes. The wells were rinsed with water and cells were solubilized with 0.1% SDS. Absorbance at 595 nm was recorded on a SpectraMax plate reader. Synthetic blocking peptides and antibodies to αVβ3 and αVβ5 integrin were pre-incubated with cells for 15 to 30 mins before they were added onto the wells in the inhibition assays.
Antibodies. Monoclonal antibodies used for blocking experiments were: mouse anti αVβ3 and αVβ5 integrins (Chemicon). Polyclonal antibodies for immunohistochemistry and western blotting were rabbit anti human αV, α2, α3, α5, β1, β3, β5 integrin, goat anti human actin (Santa Cruz), mouse anti exon 2, rabbit anti GSTexon 2, and chicken anti PIIBNP (antiserum made in our lab).

αVβ5 integrin = molecular target: T1, αVβ5 integrin (Homo sapiens, UniProt P06756+P18084); test: Cell surface labeling and GST pull-down with immunoblotting; assay type: binding; conditions: biotin-labeled Ch-1 membrane proteins, Western blot
T1 construct: Ch-1 membrane proteins were labeled with biotin, and PIIBNP was used to isolate the integrin molecules; endogenous in cells; host or cells: Ch-1 human chondrosarcoma cells (surface-biotinylated, lysed)
Method: (§2) Immunoblotting. Western blotting was performed as described (7). Blots were probed with the following primary antibodies: rabbit anti αV, α2, α3, α5, β1, β3, β5 integrin and goat anti actin (Saint Cruz), chicken anti PIIBNP antiserum, and mouse anti exon 2 antiserum.
(§3) Cell Surface labeling and GST Pull-down Assay. Ch-1 cells were incubated with EZ-link Sulfo-NHS-Biotin reagent for 30 mins. according to the product instruction (Sigma). After 3 washes with 0.1 M glycine in PBS, the cells were lysed with a lysis buffer described above. The lysate was incubated with glutathione derivatized agarose beads previously bound with GST, PIIANP, PIIBNP or mPIIBNP for 1 hr. at RT. […] The membrane was washed and incubated with antibodies and then incubated with a secondary antibody coupled to horseradish peroxidase. The antibody complex was visualized by enhanced chemiluminescence.

αVβ3 integrin = molecular target: T2, αVβ3 integrin (Homo sapiens, UniProt P05106+P06756); test: as above; assay type: binding; conditions: biotin-labeled Ch-1 membrane proteins, Western blot
T2 construct: Ch-1 membrane proteins were labeled with biotin, and PIIBNP was used to isolate the integrin molecules; endogenous in cells; host or cells: Ch-1 human chondrosarcoma cells (surface-biotinylated, lysed)
Method: as §2, §3

HUVEC cells = test: HUVEC cell death; assay type: cell-based, human; conditions: 60 hrs, 37° C.; higher concentrations
Method: FIG. 6 depicts photographs and graphs showing that PIIBNP inhibits angiogenesis. […] Quantification of tube formation was calculated based on branch points per field of view (FIG. 6C) for each treatment ranging from 0.1 μM to 10 μM of PIIBNP. […] GST (▴) and PIIANP (●) had no effect on the cells.
As a second test for angiogenesis, we tested the ability of PIIBNP to inhibit outgrowth of endogenous endothelial cells from freshly isolated rat aorta. […] In order to determine whether PIIBNP caused endothelial cell death, the number of HUVEC cells present after incubation with PIIBNP was determined (FIGS. 6E and 8). Tube formation was inhibited by 50% with 0.1 μM PIIBNP, with no cell death. […] Consequently, PIIBNP can inhibit angiogenesis in a cell line and in endogenous endothelial cells mediated by integrins αVβ3 and αVβ5.

Ch-1 cells [2] = test: Detection of cell death in Ch-1 cells; assay type: cell-based, human; conditions: 0.8 μM, serum free medium, 24 hrs; type I collagen, fibronectin or Matrigel coated plates
Method: Cell Culture. Human Chondrosarcoma cell line (Ch-1) was isolated from a portion of chondrosarcoma tumor. The Ch-1 cell line was maintained in RPMI-1640 supplemented with 10% FBS and at 37° C. in a humidified, 5% CO2 atmosphere. Human chondrocytes were obtained from Dr. Davis Adkisson (ISTO Technologies, St. Louis) or isolated from macroscopically intact tissue obtained from total joint arthroplasty as described (Bassleer et al., 1998). HeLa 229 cells and MDA-MB 231 cell lines were provided by Dr. Kathy Weilbaecher (Washington University) and were cultured in RPMI medium supplemented with 10% FBS. HUVEC cells were a gift from Dr. William Frazier (Washington University) and were cultured in M199 Earle's medium with 10 units/ml of penicillin, 5 μg/ml streptomycin and 0.25 μg/ml Fungizone supplemented with 10% FBS, 0.1 mg/ml L-glutamine, 25 mM Hepes, 16 units/ml of heparin (Sigma) and 0.1 mg/ml endothelial cell mitogen (Biochemical Technologies).
Detection of Cell Death. Cells were cultured to confluence in a 24-well plate pre-coated with type I collagen, fibronectin (Sigma), and ECM Matrigel (Becton Dickinson). Proteins in serum-free medium were added to the cells. Cells were monitored by light microscopy and images were digitally photographed using a Q capture Retiga 2000R camera. Quantification of cells remaining in the well was performed by washing with PBS for three times, fixing with 4% paraformaldehyde. The cells per field (×400) were counted for three field per well (3 wells per measurement). The mean number and standard deviation (SD) were calculated.

Ch-1 cells [3] = test: Cell adhesion assay (Ch-1 cells on wells coated with recombinant proteins); assay type: cell-based, human; conditions: wells coated with recombinant protein
Method: as §1
Cell Culture. Human Chondrosarcoma cell line (Ch-1) was isolated from a portion of chondrosarcoma tumor (Chansky et al., J Orthop Res. (1998) 16(5):521-30). The Ch-1 cell line was maintained in RPMI-1640 supplemented with 10% FBS and at 37° C. in a humidified, 5% CO2 atmosphere.

T1 sequence (P06756 31-889 limits assumed): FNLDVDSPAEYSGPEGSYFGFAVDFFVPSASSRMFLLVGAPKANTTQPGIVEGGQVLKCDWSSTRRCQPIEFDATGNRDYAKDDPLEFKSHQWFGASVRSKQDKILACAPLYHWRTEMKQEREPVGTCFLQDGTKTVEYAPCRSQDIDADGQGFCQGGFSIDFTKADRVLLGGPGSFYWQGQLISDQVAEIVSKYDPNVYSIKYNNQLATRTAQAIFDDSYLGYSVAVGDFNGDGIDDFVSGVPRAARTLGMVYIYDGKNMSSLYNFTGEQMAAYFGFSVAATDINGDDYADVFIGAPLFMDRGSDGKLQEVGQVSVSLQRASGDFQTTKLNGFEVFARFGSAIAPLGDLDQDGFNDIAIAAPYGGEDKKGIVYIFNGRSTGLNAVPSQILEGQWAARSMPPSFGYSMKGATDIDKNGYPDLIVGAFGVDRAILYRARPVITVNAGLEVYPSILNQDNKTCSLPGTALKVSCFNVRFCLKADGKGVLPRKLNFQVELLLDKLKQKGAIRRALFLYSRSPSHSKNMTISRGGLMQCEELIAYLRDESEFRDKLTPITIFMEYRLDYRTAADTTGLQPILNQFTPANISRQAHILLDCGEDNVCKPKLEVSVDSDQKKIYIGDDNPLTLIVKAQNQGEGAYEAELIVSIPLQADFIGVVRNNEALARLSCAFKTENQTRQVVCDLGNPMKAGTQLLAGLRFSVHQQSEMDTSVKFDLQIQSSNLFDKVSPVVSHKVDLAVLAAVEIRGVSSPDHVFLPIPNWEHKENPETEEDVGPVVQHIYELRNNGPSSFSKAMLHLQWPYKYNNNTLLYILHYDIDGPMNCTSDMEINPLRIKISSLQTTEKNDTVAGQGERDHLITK
T1 sequence (P06756 891-1048 limits assumed): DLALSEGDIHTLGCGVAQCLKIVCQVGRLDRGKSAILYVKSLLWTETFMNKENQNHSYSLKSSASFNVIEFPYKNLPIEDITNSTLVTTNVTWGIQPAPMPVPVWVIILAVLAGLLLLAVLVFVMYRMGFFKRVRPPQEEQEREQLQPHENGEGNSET
T1 sequence (P18084 24-799): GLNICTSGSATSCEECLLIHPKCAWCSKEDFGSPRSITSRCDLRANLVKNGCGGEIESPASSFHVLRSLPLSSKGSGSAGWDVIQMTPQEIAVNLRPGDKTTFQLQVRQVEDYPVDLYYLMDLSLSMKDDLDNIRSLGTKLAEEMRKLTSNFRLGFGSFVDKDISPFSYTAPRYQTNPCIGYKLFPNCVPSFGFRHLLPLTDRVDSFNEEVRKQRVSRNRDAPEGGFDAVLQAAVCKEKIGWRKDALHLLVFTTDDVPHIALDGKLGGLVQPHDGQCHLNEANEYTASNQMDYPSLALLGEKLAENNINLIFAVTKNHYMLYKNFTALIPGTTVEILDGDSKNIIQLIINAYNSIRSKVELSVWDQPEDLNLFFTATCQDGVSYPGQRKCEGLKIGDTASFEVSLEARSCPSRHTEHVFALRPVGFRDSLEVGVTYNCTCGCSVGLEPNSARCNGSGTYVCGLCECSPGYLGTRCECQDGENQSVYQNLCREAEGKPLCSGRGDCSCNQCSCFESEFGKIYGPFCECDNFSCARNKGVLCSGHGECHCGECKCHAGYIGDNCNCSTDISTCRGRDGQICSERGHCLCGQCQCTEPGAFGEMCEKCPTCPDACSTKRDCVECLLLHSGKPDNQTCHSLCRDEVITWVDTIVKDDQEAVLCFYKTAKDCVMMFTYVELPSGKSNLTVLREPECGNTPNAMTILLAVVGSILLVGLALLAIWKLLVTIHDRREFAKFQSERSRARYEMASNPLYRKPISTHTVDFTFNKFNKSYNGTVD
T2 sequence (P06756 31-889 limits assumed): as the sequence (P06756 31-889 limits assumed) above
T2 sequence (P06756 891-1048 limits assumed): as the sequence (P06756 891-1048 limits assumed) above
T2 sequence (P05106 27-788): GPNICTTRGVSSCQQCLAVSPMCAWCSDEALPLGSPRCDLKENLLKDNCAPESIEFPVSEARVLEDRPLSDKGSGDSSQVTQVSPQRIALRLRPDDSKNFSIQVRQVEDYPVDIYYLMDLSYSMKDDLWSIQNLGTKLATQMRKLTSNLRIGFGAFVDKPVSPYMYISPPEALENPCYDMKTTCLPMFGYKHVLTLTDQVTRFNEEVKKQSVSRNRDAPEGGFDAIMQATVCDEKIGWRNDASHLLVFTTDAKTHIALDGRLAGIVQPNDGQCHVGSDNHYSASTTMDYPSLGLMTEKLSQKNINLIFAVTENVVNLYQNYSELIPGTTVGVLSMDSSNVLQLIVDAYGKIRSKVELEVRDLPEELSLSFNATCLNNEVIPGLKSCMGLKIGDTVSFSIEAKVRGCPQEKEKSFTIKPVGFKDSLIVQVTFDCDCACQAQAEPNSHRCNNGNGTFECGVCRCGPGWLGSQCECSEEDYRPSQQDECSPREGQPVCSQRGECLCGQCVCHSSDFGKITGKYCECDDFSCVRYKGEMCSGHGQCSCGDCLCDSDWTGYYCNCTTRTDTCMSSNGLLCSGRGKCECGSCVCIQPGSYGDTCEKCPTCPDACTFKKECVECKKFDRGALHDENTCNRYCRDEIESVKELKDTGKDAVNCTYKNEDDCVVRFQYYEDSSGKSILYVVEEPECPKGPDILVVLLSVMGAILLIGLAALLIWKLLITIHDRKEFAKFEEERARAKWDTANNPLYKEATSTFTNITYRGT

Substance: GRADNP (listed as Homo sapiens)
- inhibition of adhesion ([1]; at 60 μM): ~50%

Substance: GRGDNP (listed as Homo sapiens)
- inhibition of adhesion ([1]; at 10 μM): 50%
- compete and inhibit adhesion ([1]; synthetic peptides pre-incubated with cells): compete and inhibit adhesion

Substance: GST: Recombinant GST alone, control protein for the GST fusion proteins [reference compound]
- binding to integrin αVβ5 (αVβ5 integrin): does not
- binding to integrin αVβ3 (αVβ3 integrin): does not
- HUVEC cell death (HUVEC cells): no effect
- induction of cell death in Ch-1 cells (Ch-1 cells [2]): did not induce cell death

Substance: PIIBNPn: PIIBNP obtained by cleavage of GST from a GST-PIIBNP fusion protein with thrombin beads
- adhesion to Ch-1 cells (Ch-1 cells [3]): strong binding
